According to patent publication US20220056040A1, “NOVEL 3-(2-BROMO-4-ALKYNYL-6-ALKOXYPHENYL)-3-PYRROLIN-2-ONES AND THEIR USE AS HERBICIDES” (Bayer Aktiengesellschaft, priority 2019, published 2022):

How the values were obtained:
Format in all cases: in vivo
Echinochloa crus-galli [1] = test: Pre-emergence herbicidal effect; conditions: 80 g/ha, visual score after 3 weeks vs untreated controls
Excerpt: (§1) Seeds of monocotyledonous and dicotyledonous weed plants and crop plants are laid out in sandy loam soil in wood-fiber pots and covered with soil. The compounds of the invention, formulated in the form of wettable powders (WP) or as emulsion concentrates (EC), are then applied to the surface of the covering soil as aqueous suspension or emulsion at a water application rate equating to 600 to 800 L/ha with addition of 0.2% wetting agent. After the treatment, the pots are placed in a greenhouse and kept under good growth conditions for the trial plants. The damage to the test plants is scored visually after a test period of 3 weeks by comparison with untreated controls (herbicidal activity in percent (%): 100% activity=the plants have died, 0% activity=like control plants).

Avena fatua = test: Pre-emergence herbicidal effect; conditions: 80 g/ha, visual score after 3 weeks vs untreated controls
Excerpt: as §1

Setaria viridis [2] = test: Pre-emergence herbicidal effect; conditions: 80 g/ha, visual score after 3 weeks vs untreated controls
Excerpt: as §1

Lolium rigidum [3] = test: Pre-emergence herbicidal effect; conditions: 80 g/ha, visual score after 3 weeks vs untreated controls
Excerpt: as §1

Digitaria sanguinalis [4] = test: Pre-emergence herbicidal effect; conditions: 80 g/ha, visual score after 3 weeks vs untreated controls
Excerpt: as §1

Alopecurus myosuroides [5] = test: Pre-emergence herbicidal effect; conditions: 80 g/ha, visual score after 3 weeks vs untreated controls
Excerpt: as §1

Echinochloa crus-galli [6] = test: Post-emergence herbicidal effect; conditions: 80 g/ha, post-emergence at one-leaf stage, visual score after about 3 weeks
Procedure: (§2) Seeds of monocotyledonous and dicotyledonous weed and crop plants are laid out in sandyloam soil in wood-fiber pots, covered with soil and cultivated in a greenhouse under good growth conditions. 2 to 3 weeks after sowing, the test plants are treated at the one-leaf stage. The compounds of the invention, formulated in the form of wettable powders (WP) or as emulsion concentrates (EC), are then sprayed onto the green parts of the plants as aqueous suspension or emulsion at a water application rate equating to 600 to 800 l/ha with addition of 0.2% wetting agent. After the test plants have been left to stand in the greenhouse under optimal growth conditions for about 3 weeks, the action of the preparations is assessed visually in comparison to untreated controls (herbicidal action in percent (%): 100% activity=the plants have died, 0% activity=like control plants).

Setaria viridis [7] = test: Post-emergence herbicidal effect; conditions: 80 g/ha, post-emergence at one-leaf stage, visual score after about 3 weeks
Procedure: as §2

Lolium rigidum [8] = test: Post-emergence herbicidal effect; conditions: 80 g/ha, post-emergence at one-leaf stage, visual score after about 3 weeks
Procedure: as §2

Digitaria sanguinalis [9] = test: Post-emergence herbicidal effect; conditions: 80 g/ha, post-emergence at one-leaf stage, visual score after about 3 weeks
Procedure: as §2

Alopecurus myosuroides [10] = test: Post-emergence herbicidal effect; conditions: 80 g/ha, post-emergence at one-leaf stage, visual score after about 3 weeks
Procedure: as §2

Hordeum murinum = test: Post-emergence herbicidal effect; conditions: 80 g/ha, post-emergence at one-leaf stage, visual score after about 3 weeks
Procedure: as §2

Compound	Pre-emergence action ECHCG (herbicidal activity in percent) (Echinochloa crus-galli [1]) [%]	Pre-emergence action AVEFA (herbicidal activity in percent) (Avena fatua) [%]	Pre-emergence action SETVI (herbicidal activity in percent) (Setaria viridis [2]) [%]	Pre-emergence action LOLRI (herbicidal activity in percent) (Lolium rigidum [3]) [%]	Pre-emergence action DIGSA (herbicidal activity in percent) (Digitaria sanguinalis [4]) [%]	Pre-emergence action ALOMY (herbicidal activity in percent) (Alopecurus myosuroides [5]) [%]	Post-emergence action against ECHCG (herbicidal action in percent) (Echinochloa crus-galli [6]) [%]	Post-emergence action against SETVI (herbicidal action in percent) (Setaria viridis [7]) [%]	Post-emergence action against LOLRI (herbicidal action in percent) (Lolium rigidum [8]) [%]	Post-emergence action against DIGSA (herbicidal action in percent) (Digitaria sanguinalis [9]) [%]	Post-emergence action against ALOMY (herbicidal action in percent) (Alopecurus myosuroides [10]) [%]	Post-emergence action against HORMU (herbicidal action in percent) (Hordeum murinum) [%]
CC#Cc1cc(Br)c(C2=C(OC(=O)OC)C3(CCC(OCCOC)CC3)NC2=O)c(OC)c1 (centres unmarked) [Example 1.3.06]	100	100	100	100	100	100						
C=CCOC1CCC2(CC1)NC(=O)C(c1c(Br)cc(C#CC)cc1OC)=C2OC(=O)OCC (centres unmarked) [Example 1.3.03]	100	90	100	100	100	100	100	100	100	100	100	
CC#Cc1cc(Br)c(C2=C(OC(=O)OC)C3(CCC(OC(C)C)CC3)NC2=O)c(OC)c1 (centres unmarked) [Example 1.3.11]	100	90	100	100	100	100						
CC#Cc1cc(Br)c(C2=C(OC(=O)OC)C3(CCOCC3)NC2=O)c(OC)c1 [Example 1.1.02, 3-[2-Bromo-6-methoxy-4-(prop-1-yn-1-yl)phenyl]-2-oxo-8-oxa-1-azaspiro[4.5]dec-3-en-4-yl methyl carbonate]	80	80	100	100	100	90	100	100	100	100	100	
CC#Cc1cc(Br)c(C2=C(O)C3(CCC(OC(C)C)CC3)NC2=O)c(OC)c1 (centres unmarked) [Example 1.3.09]	90	100	100	100	100	100						
CC#Cc1cc(Br)c(C2=C(OC(C)=O)C3(CCC(OCCOC)CC3)NC2=O)c(OC)c1 (centres unmarked) [Example 1.3.08]	100	90	100	100	100	100						
CC#Cc1cc(Br)c(C2=C(O)C3(CCC(OCCOC)CC3)NC2=O)c(OC)c1 (centres unmarked) [Example 1.3.05]	100	90	100	100	100	100						
CC#Cc1cc(Br)c(C2=C(OC(=O)C(C)C)C3(CCOCC3)NC2=O)c(OC)c1 [Example 1.1.04]										100		
CC#Cc1cc(Br)c(C2=C(O)C3(CCOCC3)NC2=O)c(OC)c1 [Example 1.1.01, 3-[2-Bromo-6-methoxy-4-(prop-1-yn-1-yl)phenyl]-4-hydroxy-8-oxa-1-azaspiro[4.5]dec-3-en-2-one]	100	100	100	100	100	90	100	100	100	100	100	100
CC#Cc1cc(Br)c(C2=C(OC(=O)OCC)C3(CCOCC3)NC2=O)c(OC)c1 [Example 1.1.03]							100	100	100	100	80	
CC#Cc1cc(Br)c(C2=C(OC(=O)OCC)C3(CCC4(CC3)OCCO4)NC2=O)c(OC)c1 [Example 1.2.01]	100	100	100	100	100	90	100	100	100		100	100
CC#Cc1cc(Br)c(C2=C(OC(=O)OCC)C3(CCC(OC(C)C)CC3)NC2=O)c(OC)c1 (centres unmarked) [Example 1.3.12]	100	80	100	100	100	100						
CC#Cc1cc(Br)c(C2=C(OC(=O)OCC)C3(CCC(OCCOC)CC3)NC2=O)c(OC)c1 (centres unmarked) [Example 1.3.07]	100	100	100	100	100	100						
C=CCOC1CCC2(CC1)NC(=O)C(c1c(Br)cc(C#CC)cc1OC)=C2OC(=O)OC (centres unmarked) [Example 1.3.02]	100	90	100	100	100	100	90	100	80	100	100	
